The results in this text go back to article PMC2808337, “Lactococcus lactis, an Alternative System for Functional Expression of Peripheral and Intrinsic Arabidopsis Membrane Proteins” (PLoS ONE, 2010).

The target in test [1] is T1, ceQORH (Arabidopsis thaliana, UniProt Q9SV68).
T1 construct: mostly monomer, expected mass 34 kDa
T1 sequence (Q9SV68 1-329): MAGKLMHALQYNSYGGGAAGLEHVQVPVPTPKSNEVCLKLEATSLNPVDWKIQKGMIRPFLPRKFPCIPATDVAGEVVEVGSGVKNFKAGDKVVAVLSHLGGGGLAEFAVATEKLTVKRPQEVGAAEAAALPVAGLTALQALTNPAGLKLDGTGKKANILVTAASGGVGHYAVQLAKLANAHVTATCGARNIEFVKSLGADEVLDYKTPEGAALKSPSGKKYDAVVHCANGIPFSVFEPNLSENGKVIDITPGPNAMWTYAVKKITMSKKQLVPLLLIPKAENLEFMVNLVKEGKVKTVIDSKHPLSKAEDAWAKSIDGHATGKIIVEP
Description: spectrophotometric NBT reduction to formazan, […] nm. The test is classed as biochemical. The conditions noted are these: 100 µM NBT, 100 µM NADPH, soybean lipids, 10 mM Tris-HCl pH 8.0, artificial electron acceptor.

The target of test [2] is T2, AtAATP1 (Arabidopsis thaliana, UniProt Q39002).
T2 construct: gene AATP1; N-terminal attB-encoded extension, C-terminal Strep-tag II; in intact Lactococcus lactis NZ9000 cells
T2 sequence (Q39002 81-624): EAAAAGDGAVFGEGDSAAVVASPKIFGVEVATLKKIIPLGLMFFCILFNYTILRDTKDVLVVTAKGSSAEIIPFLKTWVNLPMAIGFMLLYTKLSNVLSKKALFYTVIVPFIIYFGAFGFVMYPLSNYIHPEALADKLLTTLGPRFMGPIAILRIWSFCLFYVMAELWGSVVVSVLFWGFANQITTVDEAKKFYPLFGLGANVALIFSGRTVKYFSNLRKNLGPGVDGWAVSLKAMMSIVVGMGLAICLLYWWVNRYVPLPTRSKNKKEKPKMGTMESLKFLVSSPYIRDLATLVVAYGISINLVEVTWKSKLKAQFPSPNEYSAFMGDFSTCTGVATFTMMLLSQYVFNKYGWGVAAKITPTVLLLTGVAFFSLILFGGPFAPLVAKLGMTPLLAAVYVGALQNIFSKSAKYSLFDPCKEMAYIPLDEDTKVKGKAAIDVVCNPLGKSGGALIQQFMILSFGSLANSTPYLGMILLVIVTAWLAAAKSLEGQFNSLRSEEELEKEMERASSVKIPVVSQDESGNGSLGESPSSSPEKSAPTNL
Description: radioactive ATP uptake into intact L. lactis cells, filtration. It is filed as cell-based. The conditions noted are these: 50 µM [α-32P]ATP, 50 mM potassium phosphate pH 7.0, 25 °C; empty-vector control; labelled compound.

Turning to `NC(=O)C1=CN([C@@H]2O[C@H](COP(=O)(O)OP(=O)(O)OC[C@H]3O[C@@H](n4cnc5c(N)ncnc54)[C@H](OP(=O)(O)O)[C@@H]3O)[C@@H](O)[C@H]2O)C=CC1` [NADPH], the “spectrophotometric NBT reduction to formazan, 550 nm” value in test [1] (electron donor) is listed as “ceQORH protein indeed has NADPH-dependent dehydrogenase activity”.
Consider `COc1cc(-c2ccc(-[n+]3nc(-c4ccccc4)nn3-c3ccc([N+](=O)[O-])cc3)c(OC)c2)ccc1-[n+]1nc(-c2ccccc2)nn1-c1ccc([N+](=O)[O-])cc1` [NBT], for which the “spectrophotometric NBT reduction to formazan, 550 nm” value in test [1] is “the ceQORH protein, in combination with lipids and NADPH reduces the NBT to formazan”.
For `Nc1ncnc2c1ncn2[C@@H]1O[C@H](COP(=O)(O)OP(=O)(O)OP(=O)(O)O)[C@@H](O)[C@H]1O` [[α-32P] ATP], in test [2], the “radioactive ATP uptake into intact L. lactis cells, filtration” value is listed as “recombinant AtAATP1 protein produced in L. lactis is able to transport ATP”.
